Target: T1, human mAChR M4 (Homo sapiens, UniProt P08173)
T1 construct: expressed in transfected cells; host or cells: CHO-K1 (American Type Culture Collection), stably expressing hM4 and Gqi5
T1 sequence (P08173 1-479): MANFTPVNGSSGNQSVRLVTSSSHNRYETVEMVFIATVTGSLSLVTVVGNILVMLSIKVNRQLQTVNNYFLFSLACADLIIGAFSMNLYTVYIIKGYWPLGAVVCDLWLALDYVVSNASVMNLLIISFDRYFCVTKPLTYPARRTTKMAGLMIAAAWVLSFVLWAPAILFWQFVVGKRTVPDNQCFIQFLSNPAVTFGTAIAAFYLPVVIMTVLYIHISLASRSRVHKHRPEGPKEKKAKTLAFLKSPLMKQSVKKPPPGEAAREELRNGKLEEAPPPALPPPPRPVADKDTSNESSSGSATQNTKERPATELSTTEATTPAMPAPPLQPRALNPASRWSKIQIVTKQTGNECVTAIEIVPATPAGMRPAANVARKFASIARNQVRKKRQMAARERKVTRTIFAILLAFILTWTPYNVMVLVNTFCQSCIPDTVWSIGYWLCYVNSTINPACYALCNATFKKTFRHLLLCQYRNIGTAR
Assay: mAChR M4 cell-based functional assay: calcium mobilization (Fluo-4, FDSS), potentiation of EC20 acetylcholine response in hM4-Gqi5 CHO-K1 cells
Details: human M4; for Emax at 30 µM: CHO-K1, % ACh maximum at 30 μM; for EC50: potentiation of EC20 acetylcholine response, calcium mobilization
In short: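 Readout is the fluorescence-ratio rise at 1 Hz on FDSS, with PAM activity taken as concentration-dependent enhancement of the EC20 acetylcholine response, fitted four-parameter for EC50/Emax. hM4-Gqi5 CHO-K1 cells carried Fluo-4 AM dye; test compounds (11 points, 1:3) preceded EC20 acetylcholine additions at 144 s and 230 s.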

| Emax at 30 µM | EC50 | SMILES |
| --- | --- | --- |
| 63% | 130 nM | Cc1cc2nccc(=O)n2nc1N1CCc2ncc(-c3cncc(F)c3C)cc2C1 [Compound 1-399, 7-(3-(5-fluoro-4-methylpyridin-3-yl)-7,8-dihydro-1,6-naphthyridin-6(5H)-yl)-8-methyl-4H-pyrimido[1,2-b]pyridazin-4-one] |
| 95% | 433 nM | Cc1cc(C(F)(F)F)ncc1-c1cnc2c(c1)CN(c1nn3c(=O)ccnc3cc1C)CC2 [Compound 1-400, 8-methyl-7-(3-(4-methyl-6-(trifluoromethyl)pyridin-3-yl)-7,8-dihydro-1,6-naphthyridin-6(5H)-yl)-4H-pyrimido[1,2-b] pyridazin-4-one] |
| 39% |  | Cc1cc2nccc(=O)n2nc1N1CCc2ncc(-c3c(C)ccnc3C)cc2C1 [Compound 1-401, 7-(3-(2,4-dimethylpyridin-3-yl)-7,8-dihydro-1,6-naphthyridin-6(5H)-yl)-8-methyl-4H-pyrimido [1,2-b]pyridazin-4-one] |
| 86% | 112 nM | Cc1ccncc1-c1cnc2c(c1)CN(c1nn3c(=O)ccnc3cc1C)CC2 [Compound 1-403, 8-methyl-7-(3-(4-methylpyridin-3-yl)-7,8-dihydro-1,6-naphthyridin-6(5H)-yl)-4H-pyrimido[1,2-b] pyridazin-4-one] |
| 97% | 165 nM | Cc1cc(N)ncc1-c1cnc2c(c1)CN(c1nn3c(=O)ccnc3cc1C)CC2 [Compound 1-404, 7-(3-(6-amino-4-methylpyridin-3-yl)-7,8-dihydro-1,6-naphthyridin-6(5H)-yl)-8-methyl-4H-pyrimido[1,2-b]pyridazin-4-one] |
| 61% | 259 nM | Cc1cc(C)c(-c2cnc3c(c2)CN(c2nn4c(=O)ccnc4cc2C)CC3)cn1 [Compound 1-405, 7-(3-(4,6-dimethylpyridin-3-yl)-7,8-dihydro-1,6-naphthyridin-6(5H)-yl)-8-methyl-4H-pyrimido [1,2-b]pyridazin-4-one] |
| 86% | 3970 nM | Cc1cc(C(=O)O)ncc1-c1cnc2c(c1)CN(c1nn3c(=O)ccnc3cc1C)CC2 [Compound 1-406, 4-methyl-5-(6-(8-methyl-4-oxo-4H-pyrimido[1,2-b]pyridazin-7-yl)-5,6,7,8-tetrahydro-1,6-naphthyridin-3-yl)picolinic acid] |
| 92% | 132 nM | Cc1cc(N(C)C)ncc1-c1cnc2c(c1)CN(c1nn3c(=O)ccnc3cc1C)CC2 [Compound 1-407, 7-(3-(6-(dimethylamino)-4-methylpyridin-3-yl)-7,8-dihydro-1,6-naphthyridin-6(5H)-yl)-8-methyl-4H-pyrimido [1,2-b]pyridazin-4-one] |
| 90% | 257 nM | Cc1cc2nccc(=O)n2nc1N1CCc2ncc(-c3cnn(C)c3C)cc2C1 [Compound 1-408, 7-(3-(1,5-dimethyl-1H-pyrazol-4-yl)-7,8-dihydro-1,6-naphthyridin-6(5H)-yl)-8-methyl-4H-pyrimido[1,2-b]pyridazin-4-one] |
| 95% | 48 nM | Cc1cc2nccc(=O)n2nc1N1CCc2ncc(-c3sccc3C)cc2C1 [Compound 1-409, 8-methyl-7-(3-(3-methylthiophen-2-yl)-7,8-dihydro-1,6-naphthyridin-6(5H)-yl)-4H-pyrimido[1,2-b]pyridazin-4-one] |
| 82% | 178 nM | Cc1cc2nccc(=O)n2nc1N1CCc2ncc(-c3ccsc3C#N)cc2C1 [Compound 1-410, 3-(6-(8-methyl-4-oxo-4H-pyrimido[1,2-b]pyridazin-7-yl)-5,6,7,8-tetrahydro-1,6-naphthyridin-3-yl)thiophene-2-carbonitrile] |
| 82% | 1240 nM | Cc1cc2nccc(=O)n2nc1N1CCc2ncc(-c3cn(C)nc3C(F)(F)F)cc2C1 [Compound 1-411, 8-methyl-7-(3-(1-methyl-3-(trifluoromethyl)-1H-pyrazol-4-yl)-7,8-dihydro-1,6-naphthyridin-6(5H)-yl)-4H-pyrimido[1,2-b]pyridazin-4-one] |
| 86% | 352 nM | Cc1cc2nccc(=O)n2nc1N1CCc2ncc(-c3cn(C)nc3C(F)F)cc2C1 [Compound 1-412, 7-(3-(3-(difluoromethyl)-1-methyl-1H-pyrazol-4-yl)-7,8-dihydro-1,6-naphthyridin-6(5H)-yl)-8-methyl-4H-pyrimido [1,2-b]pyridazin-4-one] |
| 89% | 208 nM | Cc1cc2nccc(=O)n2nc1N1CCc2ncc(-c3cnn(C)c3C(F)F)cc2C1 [Compound 1-413, 7-(3-(5-(difluoromethyl)-1-methyl-1H-pyrazol-4-yl)-7,8-dihydro-1,6-naphthyridin-6(5H)-yl)-8-methyl-4H-pyrimido[1,2-b]pyridazin-4-one] |
| 81% | 435 nM | Cc1cc2nccc(=O)n2nc1N1CCc2ncc(-c3cnn(C(F)F)c3C)cc2C1 [Compound 1-414, 7-(3-(1-(difluoromethyl)-5-methyl-1H-pyrazol-4-yl)-7,8-dihydro-1,6-naphthyridin-6(5H)-yl)-8-methyl-4H-pyrimido[1,2-b]pyridazin-4-one] |
| 86% | 810 nM | Cc1cc2nccc(=O)n2nc1N1CCc2ncc(-c3ccsc3C=O)cc2C1 [Compound 1-415, 3-(6-(8-methyl-4-oxo-4H-pyrimido[1,2-b]pyridazin-7-yl)-5,6,7,8-tetrahydro-1,6-naphthyridin-3-yl)thiophene-2-carbaldehyde] |
| 89% | 797 nM | Cc1cc2nccc(=O)n2nc1N1CCc2ncc(-c3c(C)noc3C)cc2C1 [Compound 1-416, 7-(3-(3,5-dimethylisoxazol-4-yl)-7,8-dihydro-1,6-naphthyridin-6(5H)-yl)-8-methyl-4H-pyrimido[1,2-b]pyridazin-4-one] |
| 82% | 588 nM | Cc1cc2nccc(=O)n2nc1N1CCc2ncc(-c3cn(C(F)F)nc3C)cc2C1 [Compound 1-417, 7-(3-(1-(difluoromethyl)-3-methyl-1H-pyrazol-4-yl)-7,8-dihydro-1,6-naphthyridin-6(5H)-yl)-8-methyl-4H-pyrimido[1,2-b]pyridazin-4-one] |
| 48% |  | Cc1cc2nccc(=O)n2nc1N1CCc2ncc(-c3cccnc3C(C)(C)O)cc2C1 [Compound 1-418, 7-(3-(2-(2-hydroxypropan-2-yl)pyridin-3-yl)-7,8-dihydro-1,6-naphthyridin-6(5H)-yl)-8-methyl-4H-pyrimido[1,2-b]pyridazin-4-one] |
| 82% | 1120 nM | Cc1cc2nccc(=O)n2nc1N1CCc2ncc(-c3cncc(C(C)(C)O)c3)cc2C1 [Compound 1-419, 7-(3-(5-(2-hydroxypropan-2-yl)pyridin-3-yl)-7,8-dihydro-1,6-naphthyridin-6(5H)-yl)-8-methyl-4H-pyrimido[1,2-b]pyridazin-4-one] |
| 93% | 1720 nM | Cc1ncc(-c2cnc3c(c2)CN(c2nn4c(=O)ccnc4cc2C)CC3)c(C)n1 [Compound 1-420, 7-(3-(2,4-dimethylpyrimidin-5-yl)-7,8-dihydro-1,6-naphthyridin-6(5H)-yl)-8-methyl-4H-pyrimido[1,6-b]pyridazin-4-one] |

— patent publication US20250101041A1, “POSITIVE ALLOSTERIC MODULATORS OF THE MUSCARINIC ACETYLCHOLINE RECEPTOR M4” (Vanderbilt University, priority 2022, published 2025)
